Data reported in ChEMBL document CHEMBL3045059, “Efficacy of ketoenols on insecticide resistant field populations of two-spotted spider mite Tetranychus urticae and sweet potato whitefly Bemisia tabaci from Greece” (2012).
In brackets after ≈: the same amount, converted by molar mass.

Columns and labels:
Type in all cases: functional
[1] = test system: Tetranychus urticae; experiment: Acaricidal activity against adult Tetranychus urticae (two-spotted spider mite) greenhouse population TU1 in bean leaves assessed as mortality applied at 1 bar pressure measured after 24 hr; conditions: TU1, 24 h
[2] = test system: Tetranychus urticae; experiment: Acaricidal activity against adult Tetranychus urticae (two-spotted spider mite) greenhouse population TU11 in bean leaves assessed as mortality applied at 1 bar pressure measured after 24 hr; conditions: TU11, 24 h
[3] = test system: Tetranychus urticae; experiment: Resistance ratio, ratio of LC50 for adult Tetranychus urticae (two-spotted spider mite) greenhouse population TU11 to LC50 for adult Tetranychus urticae laboratory strain SAMB measured after 24 hr
[4] = test system: Tetranychus urticae; experiment: Resistance ratio, ratio of LC50 for adult Tetranychus urticae (two-spotted spider mite) greenhouse population TU7 to LC50 for adult Tetranychus urticae laboratory strain SAMB measured after 24 hr
[5] = test system: Tetranychus urticae; experiment: Acaricidal activity against adult Tetranychus urticae (two-spotted spider mite) laboratory strain SAMB in bean leaves assessed as mortality applied at 1 bar pressure measured after 24 hr
[6] = test system: Tetranychus urticae; experiment: Resistance ratio, ratio of LC50 for adult Tetranychus urticae (two-spotted spider mite) field population TU2 to LC50 for adult Tetranychus urticae laboratory strain SAMB measured after 24 hr
[7] = test system: Tetranychus urticae; experiment: Resistance ratio, ratio of LC50 for adult Tetranychus urticae (two-spotted spider mite) laboratory strain GSS to LC50 for adult Tetranychus urticae laboratory strain SAMB measured after 24 hr
[8] = test system: Tetranychus urticae; experiment: Acaricidal activity against adult Tetranychus urticae (two-spotted spider mite) greenhouse population TU3 in bean leaves assessed as mortality applied at 1 bar pressure measured after 24 hr; conditions: TU3, 24 h
[9] = test system: Tetranychus urticae; experiment: Acaricidal activity against adult Tetranychus urticae (two-spotted spider mite) field population TU2 in bean leaves assessed as mortality applied at 1 bar pressure measured after 24 hr; conditions: TU2, 24 h
[10] = test system: Tetranychus urticae; experiment: Acaricidal activity against adult Tetranychus urticae (two-spotted spider mite) field population TU6 in bean leaves assessed as mortality applied at 1 bar pressure measured after 24 hr; conditions: TU6, 24 h
[11] = test system: Tetranychus urticae; experiment: Resistance ratio, ratio of LC50 for adult Tetranychus urticae (two-spotted spider mite) greenhouse population TU9 to LC50 for adult Tetranychus urticae laboratory strain SAMB measured after 24 hr
[12] = test system: Tetranychus urticae; experiment: Resistance ratio, ratio of LC50 for adult Tetranychus urticae (two-spotted spider mite) greenhouse population TU3 to LC50 for adult Tetranychus urticae laboratory strain SAMB measured after 24 hr
[13] = test system: Tetranychus urticae; experiment: Resistance ratio, ratio of LC50 for adult Tetranychus urticae (two-spotted spider mite) field population TU12 to LC50 for adult Tetranychus urticae laboratory strain SAMB measured after 24 hr
[14] = test system: Tetranychus urticae; experiment: Acaricidal activity against adult Tetranychus urticae (two-spotted spider mite) greenhouse population TU7 in bean leaves assessed as mortality applied at 1 bar pressure measured after 24 hr; conditions: TU7, 24 h
[15] = test system: Tetranychus urticae; experiment: Resistance ratio, ratio of LC50 for adult Tetranychus urticae (two-spotted spider mite) greenhouse population TU5 to LC50 for adult Tetranychus urticae laboratory strain SAMB measured after 24 hr
[16] = test system: Tetranychus urticae; experiment: Resistance ratio, ratio of LC50 for adult Tetranychus urticae (two-spotted spider mite) field population TU6 to LC50 for adult Tetranychus urticae laboratory strain SAMB measured after 24 hr
[17] = test system: Tetranychus urticae; experiment: Acaricidal activity against adult Tetranychus urticae (two-spotted spider mite) greenhouse population TU9 in bean leaves assessed as mortality applied at 1 bar pressure measured after 24 hr; conditions: TU9, 24 h
[18] = test system: Tetranychus urticae; experiment: Acaricidal activity against adult Tetranychus urticae (two-spotted spider mite) field population TU12 in bean leaves assessed as mortality applied at 1 bar pressure measured after 24 hr; conditions: TU12, 24 h
[19] = test system: Tetranychus urticae; experiment: Resistance ratio, ratio of LC50 for adult Tetranychus urticae (two-spotted spider mite) greenhouse population TU1 to LC50 for adult Tetranychus urticae laboratory strain SAMB measured after 24 hr
[20] = test system: Tetranychus urticae; experiment: Acaricidal activity against adult Tetranychus urticae (two-spotted spider mite) laboratory strain GSS in bean leaves assessed as mortality applied at 1 bar pressure measured after 24 hr
[21] = test system: Tetranychus urticae; experiment: Acaricidal activity against adult Tetranychus urticae (two-spotted spider mite) field population TU4 in bean leaves assessed as mortality applied at 1 bar pressure measured after 24 hr; conditions: TU4, 24 h
[22] = test system: Tetranychus urticae; experiment: Acaricidal activity against adult Tetranychus urticae (two-spotted spider mite) greenhouse population TU5 in bean leaves assessed as mortality applied at 1 bar pressure measured after 24 hr; conditions: TU5, 24 h
[23] = test system: Tetranychus urticae; experiment: Resistance ratio, ratio of LC50 for adult Tetranychus urticae (two-spotted spider mite) field population TU4 to LC50 for adult Tetranychus urticae laboratory strain SAMB measured after 24 hr

| SMILES | LC50 [1] [µg/mL] | LC50 [2] [µg/mL] | RatioLC50 [3] | RatioLC50 [4] | LC50 [5] [µg/mL] | RatioLC50 [6] | RatioLC50 [7] | LC50 [8] [µg/mL] | LC50 [9] [µg/mL] | LC50 [10] [µg/mL] | RatioLC50 [11] | RatioLC50 [12] | RatioLC50 [13] | LC50 [14] [µg/mL] | RatioLC50 [15] | RatioLC50 [16] | LC50 [17] [µg/mL] | LC50 [18] [µg/mL] | RatioLC50 [19] | LC50 [20] [µg/mL] | other results |
| --- | --- | --- | --- | --- | --- | --- | --- | --- | --- | --- | --- | --- | --- | --- | --- | --- | --- | --- | --- | --- | --- |
| CC(C)(C)c1ccc(CSc2cnn(C(C)(C)C)c(=O)c2Cl)cc1 [PYRIDABEN] | 29 (≈ 79.5 µM) | 248 (≈ 680 µM) | 39 | 34 | 6.4 (≈ 17.5 µM) | 11 | 0.7 | 117 (≈ 321 µM) | 71 (≈ 195 µM) | 16 (≈ 43.8 µM) | 26 | 18 | 9.8 | 221 (≈ 606 µM) | 5.9 | 2.6 | 166 (≈ 455 µM) | 62 (≈ 170 µM) | 4.5 | 4.4 (≈ 12.1 µM) | LC50 [21]: 26 µg/mL (≈ 71.2 µM); LC50 [22]: 38 µg/mL (≈ 104 µM); RatioLC50 [23]: 4 |
| CC(C)(C)c1ccc(CCOc2ncnc3ccccc23)cc1 [FENAZAQUIN] | 179 (≈ 584 µM) | 562 (≈ 1830 µM) | 42 | 33 | 13 (≈ 42.4 µM) | 7.3 | 1.3 | 77 (≈ 251 µM) | 97 (≈ 317 µM) | 29 (≈ 94.6 µM) | 23 | 5.7 | 15 | 447 (≈ 1460 µM) | 3.7 | 2.2 | 316 (≈ 1030 µM) | 215 (≈ 702 µM) | 13 | 17 (≈ 55.5 µM) | LC50 [21]: 55 µg/mL (≈ 179 µM); LC50 [22]: 49 µg/mL (≈ 160 µM); RatioLC50 [23]: 4.1 |
